Results as given in patent publication US20170304336A1, “COMBINATION” (priority 2014, published 2017).

Assays:
Type in all cases: in vivo, male rats of Wistar line
[1] = test system: experimental rat hypercholesterolemia model; test: Biochemical blood analysis (drug toxicity parameters) in rat hypercholesterolemia model
Experimental: (§1) Evaluation of hypocholesterolemic efficacy and safety of pharmaceutical combination was performed in vivo in experimental rat hypercholesterolemia model.
(§2) For 90 days the studied animals received hypercholesterol diet for pathology induction. The diet included Cholesterol+Cholic acid+Overheated fats (deep fat).
(§3) Drugs were introduced intragastrically with an esophageal bougie daily on Day 31-90 of the study at the same time of day.
Biochemical parameters and activity of serum enzymes (aspartate- and alanine aminotransferase, creatine phosphokinase, urea, serum amylase, total bilirubin, direct bilirubin, indirect bilirubin, serum glucose, cations K^+, Na^+).
1.0-1.84 ml blood samples for the study of biochemical parameters were taken from tail vein of rats. Blood samples were taken from the animals after 14-15-hour's fasting at same time of day (9.00-11.00). For biochemical parameters tests a Biochemical Analyzer A-25 (Biosystems, Spain) was used.
Vol. 4. pp. 1794-1798; Pearlman F C and Lee R T Y. Clin Chem 1974, 20, 447-453; Zoppi F et al, Peracino A., Fenili D., Marcovina S. and Ramella C. Giorn It Chim Cl. […] C. et al Clin Chem. 1974. Vol. 20. pp. 470-475; and in Meiattini F., et al, Clin Chem. 1978. Vol. 24. pp. 2161-2165 (total cholesterol); Warnick G R et al. Clin Chem 2001, 47, 1579-96 (HDL/LDL); Bucolo G and David H. Clin Chem. 1973.-Vol. 19. pp. 476-482; and in Fossati P. and, Prencipe L., Clin Chem. 1982. Vol. 28. pp. 2077-2080 (triglycerides); Trinder P. Ann Clin Biochem. 1969. Vol. 6. pp. 24-27).

[2] = Mass coefficients of organs (pancreas, liver, kidneys) of rats; conditions: M ± m; for weight coefficient, Kidneys / weight coefficient, Liver: in %
Experimental: To calculate mass coefficients the pancreas, liver and kidneys of the animals were extracted. The organs were weighed and the mass coefficients were calculated by the following formula:
Mass coefficient=(organ weight/animal body weight)×100%

[3] = test system: experimental rat hypercholesterolemia model; test: Lipid spectrum of blood in experimental rat hypercholesterolemia model
Experimental: The animals used were male rats of Wistar line. […] The proposed model using rats as the experimental animals is a reproducible standard model for evaluation of hypocholesterolemic effect.
as §1, §2
For 90 days the animals received the said ration ad libitum (30 g feed per animal). Development of hypercholesterolemia in animals was evaluated based on changes in lipid spectrum parameters on Day 30 of the study.
as §3
Biochemical parameters and activity of blood serum enzymes (total cholesterol (CHS), LDL-CHS, HDL-CHS, triglycerides.
1.0-1.84 ml blood samples for the study of biochemical parameters were taken from tail vein of rats. Blood samples were taken from the animals after 14-15-hour's fasting at same time of day (9.00-11.00). For biochemical parameters tests a Biochemical Analyzer A-25 (Biosystems, Spain) was used. […]

[4] = Day 30 of treatment (Day 60 of study), dose 80 mg
[5] = blood, Day 60 of the treatment (Day 90 of the study), FV + GA 80 + 90 mg, FV 80 mg, GA 90 mg
[6] = FV + GA 80 + 90 mg, FV 80 mg, GA 90 mg
[7] = Day 60 of treatment (Day 90 of study), dose 80 mg
[8] = Day 30 of treatment (Day 60 of study), dose 40 mg
[9] = blood, Day 60 of the treatment (Day 90 of the study), PV + GtA 40 + 108 mg, PV 20 mg, GtA 108 mg
[10] = PV + GtA 40 + 108 mg, PV 40 mg, GtA 108 mg
[11] = group 3 of the rosuvastatin table, 20 mg
[12] = Day 60 of treatment (Day 90 of study), dose 40 mg
[13] = Day 30 of treatment (Day 60 of study), dose 20 mg
[14] = Day 30 of treatment, 20 mg as monotherapy
[15] = Day 60 of treatment (Day 90 of study), dose 20 mg

## CC(C)n1c(/C=C/[C@@H](O)C[C@@H](O)CC(=O)O)c(-c2ccc(F)cc2)c2ccccc21 (stereo in doubt) [FV, (3R,5S,6E)-7-[3-(4-fluorophenyl)-1-(propan-2-yl)-1H-indol-2-yl]-3,5-dihydroxyhept-6-enoic acid]
[1]; [4]
  ALT: 170 U/l
  AST: 191 U/l
  Amylase: 637 U/l
  Bilirubin direct: 2.6 mg/dL
  Bilirubin indirect: 2.2 mg/dL
  Bilirubin total: 4.0 mg/dL
  CPK: 690 U/l
  Glucose: 150 mg/dL
  Potassium: 3 mM
  Sodium: 125 mmol
  Urea: 7.3 mmol/L
[1]; [5]
  ALT: 148 U/l
  AST: 200 U/l
  Amylase: 590 U/l
  Bilirubin direct: 1.4 mg/dL
  Bilirubin indirect: 1.6 mg/dL
  Bilirubin total: 4.2 mg/dL
  CPK: 680 U/l
  Glucose: 127 mg/dL
  Potassium: 2.3 mM
  Sodium: 124 mmol
  Urea: 6.3 mmol/L
[2]; [6]
  weight coefficient, Pancreas: 0.37 ± 0.03^1
  weight coefficient, Kidneys: 0.75 ± 0.03
  weight coefficient, Liver: 4.41 ± 0.12
[3]; [4]
  HDL CHS: 0.61 ± 0.04 mmol/L
  LDL CHS: 3.31 ± 0.44 mmol/L
  TG: 1.39 ± 0.14 mmol/L
  Total CHS: 5.0 ± 0.3 mmol/L
[3]; [7]
  HDL CHS: 0.72 ± 0.03 mmol/L
  LDL CHS: 3.52 ± 0.44 mmol/L
  TG: 1.45 ± 0.14 mmol/L
  Total CHS: 4.9 ± 0.4 mmol/L

## CC[C@H](C)C(=O)OC1C[C@H](O)C=C2C=C[C@H](C)C(CC[C@@H](O)C[C@@H](O)CC(=O)O)[C@H]21 (stereo in doubt) [PV, (3R,5R)-3,5-dihydroxy-7-((1R,2S,6S,8R,8aR)-6-hydroxy-2-methyl-8-{[(2S)-2-methylbutanoyl]oxy}-1,2,6,7,8,8a-hexahydronaphthalen-1-yl)-heptanoic acid]
[1]; [8]
  ALT: 177 U/l
  AST: 173 U/l
  Amylase: 641 U/l
  Bilirubin direct: 2.8 mg/dL
  Bilirubin indirect: 2.2 mg/dL
  Bilirubin total: 4.7 mg/dL
  CPK: 604 U/l
  Glucose: 150 mg/dL
  Potassium: 3.4 mM
  Sodium: 127 mmol
  Urea: 7.0 mmol/L
[1]; [9]
  ALT: 135 U/l
  AST: 188 U/l
  Amylase: 586 U/l
  Bilirubin direct: 2.7 mg/dL
  Bilirubin indirect: 1.9 mg/dL
  Bilirubin total: 4.9 mg/dL
  CPK: 598 U/l
  Glucose: 160 mg/dL
  Potassium: 4.3 mM
  Sodium: 129 mmol
  Urea: 6.0 mmol/L
[2]; [10]
  weight coefficient, Pancreas: 0.47 ± 0.03^1
  weight coefficient, Kidneys: 0.76 ± 0.01
  weight coefficient, Liver: 4.47 ± 0.17
[2]; [11]
  weight coefficient, Pancreas: 0.49 ± 0.03^1
  weight coefficient, Kidneys: 0.78 ± 0.02
  weight coefficient, Liver: 4.49 ± 0.15
[3]; [8]
  HDL CHS: 0.65 ± 0.04 mmol/L
  LDL CHS: 4.12 ± 0.35 mmol/L
  TG: 1.33 ± 0.12 mmol/L
  Total CHS: 4.4 ± 0.3 mmol/L
[3]; [12]
  HDL CHS: 0.75 ± 0.04 mmol/L
  LDL CHS: 3.70 ± 0.35 mmol/L
  TG: 1.33 ± 0.11 mmol/L
  Total CHS: 4.0 ± 0.3 mmol/L

## CCC(C)(C)C(=O)O[C@H]1C[C@@H](C)C=C2C=C[C@H](C)[C@H](CC[C@@H]3C[C@@H](O)CC(=O)O3)[C@H]21 [SV, (1S,3R,7S,8S,8aR)-8-{2-[(2R,4R)-4-hydroxy-6-oxotetrahydro-2H-pyran-2-yl]ethyl}-3,7-dimethyl-1,2,3,7,8,8a-hexahydronaphthalen-1-yl 2,2-dimethylbutanoate]
[3]; [13]
  HDL CHS: 0.82 ± 0.06 mmol/L
  LDL CHS: 3.75 ± 0.25 mmol/L
  TG: 1.41 ± 0.11 mmol/L
  Total CHS: 5.2 ± 0.2 mmol/L
[3]; [8]
  HDL CHS: 0.58 ± 0.02 mmol/L
  LDL CHS: 3.54 ± 0.20 mmol/L
  TG: 1.27 ± 0.04 mmol/L
  Total CHS: 4.2 ± 0.2 mmol/L
[3]; [14]
  LDL decrease as compared to the control group: 35%
  TG decrease as compared to the control group: 18%
  decrease of the concentration of CHS as compared to the control group: 26%
  increase in concentration of HDL as compared to the control group: 86%
[3]; [15]
  HDL CHS: 0.77 ± 0.05 mmol/L
  LDL CHS: 3.50 ± 0.05 mmol/L
  TG: 1.43 ± 0.11 mmol/L
  Total CHS: 4.9 ± 0.3 mmol/L
[3]; [12]
  HDL CHS: 0.91 ± 0.02 mmol/L
  LDL CHS: 3.20 ± 0.1 mmol/L
  TG: 1.09 ± 0.05 mmol/L
  Total CHS: 3.8 ± 0.1 mmol/L
